Source: ChEMBL document CHEMBL1144455, “A small molecule-kinase interaction map for clinical kinase inhibitors” (Nat Biotechnol, 2005)

How the values were obtained:
[1] = biological target: Cyclin-dependent kinase 5 (Homo sapiens, UniProt Q00535)
[2] = biological target: Mitogen-activated protein kinase kinase kinase kinase 5 (Homo sapiens, UniProt Q9Y4K4)
[3] = biological target: T1, Serine/threonine-protein kinase 36 (Homo sapiens, UniProt Q9NRP7)
T1 sequence (Q9NRP7 whole entry): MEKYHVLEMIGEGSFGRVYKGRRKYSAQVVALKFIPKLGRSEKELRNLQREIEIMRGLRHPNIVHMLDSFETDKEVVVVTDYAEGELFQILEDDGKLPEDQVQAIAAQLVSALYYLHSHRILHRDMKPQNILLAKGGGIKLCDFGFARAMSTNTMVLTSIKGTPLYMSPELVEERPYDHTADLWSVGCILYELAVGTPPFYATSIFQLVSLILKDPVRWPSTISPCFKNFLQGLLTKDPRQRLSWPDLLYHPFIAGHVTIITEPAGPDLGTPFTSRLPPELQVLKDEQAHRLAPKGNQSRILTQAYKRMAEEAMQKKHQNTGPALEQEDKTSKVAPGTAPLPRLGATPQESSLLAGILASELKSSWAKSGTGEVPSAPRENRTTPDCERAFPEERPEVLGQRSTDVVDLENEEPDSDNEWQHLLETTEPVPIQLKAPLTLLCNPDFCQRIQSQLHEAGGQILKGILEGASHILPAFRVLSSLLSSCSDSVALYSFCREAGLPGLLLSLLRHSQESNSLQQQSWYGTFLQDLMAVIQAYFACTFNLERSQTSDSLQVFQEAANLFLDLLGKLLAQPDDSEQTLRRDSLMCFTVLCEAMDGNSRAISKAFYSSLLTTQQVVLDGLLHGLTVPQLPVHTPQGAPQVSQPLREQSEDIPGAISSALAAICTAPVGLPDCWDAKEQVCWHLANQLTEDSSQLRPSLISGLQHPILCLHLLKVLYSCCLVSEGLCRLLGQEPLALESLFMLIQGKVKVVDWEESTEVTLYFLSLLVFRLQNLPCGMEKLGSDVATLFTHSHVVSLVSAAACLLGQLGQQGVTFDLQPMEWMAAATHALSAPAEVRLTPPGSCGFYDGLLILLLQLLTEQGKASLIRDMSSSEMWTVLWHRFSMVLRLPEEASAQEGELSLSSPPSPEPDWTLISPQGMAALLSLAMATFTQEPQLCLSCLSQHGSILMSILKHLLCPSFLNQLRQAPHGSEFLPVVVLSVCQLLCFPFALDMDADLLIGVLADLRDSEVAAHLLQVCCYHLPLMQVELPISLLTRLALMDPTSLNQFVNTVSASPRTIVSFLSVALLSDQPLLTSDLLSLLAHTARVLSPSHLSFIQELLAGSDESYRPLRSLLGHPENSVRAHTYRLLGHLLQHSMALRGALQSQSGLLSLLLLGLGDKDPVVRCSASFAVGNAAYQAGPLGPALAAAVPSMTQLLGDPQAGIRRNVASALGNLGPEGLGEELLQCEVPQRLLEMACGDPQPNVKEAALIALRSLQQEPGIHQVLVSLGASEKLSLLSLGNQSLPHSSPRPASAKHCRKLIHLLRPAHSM

[4] = biological target: Serine/threonine-protein kinase Nek6 (Homo sapiens, UniProt Q9HC98)
LIM domain kinase 1 = LIM domain kinase 1 (Homo sapiens, UniProt P53667)
[5] = biological target: Tyrosine-protein kinase Fer (Homo sapiens, UniProt P16591)
[6] = biological target: T2, Serine/threonine-protein kinase PLK4 (Homo sapiens, UniProt O00444)
T2 sequence (O00444 whole entry): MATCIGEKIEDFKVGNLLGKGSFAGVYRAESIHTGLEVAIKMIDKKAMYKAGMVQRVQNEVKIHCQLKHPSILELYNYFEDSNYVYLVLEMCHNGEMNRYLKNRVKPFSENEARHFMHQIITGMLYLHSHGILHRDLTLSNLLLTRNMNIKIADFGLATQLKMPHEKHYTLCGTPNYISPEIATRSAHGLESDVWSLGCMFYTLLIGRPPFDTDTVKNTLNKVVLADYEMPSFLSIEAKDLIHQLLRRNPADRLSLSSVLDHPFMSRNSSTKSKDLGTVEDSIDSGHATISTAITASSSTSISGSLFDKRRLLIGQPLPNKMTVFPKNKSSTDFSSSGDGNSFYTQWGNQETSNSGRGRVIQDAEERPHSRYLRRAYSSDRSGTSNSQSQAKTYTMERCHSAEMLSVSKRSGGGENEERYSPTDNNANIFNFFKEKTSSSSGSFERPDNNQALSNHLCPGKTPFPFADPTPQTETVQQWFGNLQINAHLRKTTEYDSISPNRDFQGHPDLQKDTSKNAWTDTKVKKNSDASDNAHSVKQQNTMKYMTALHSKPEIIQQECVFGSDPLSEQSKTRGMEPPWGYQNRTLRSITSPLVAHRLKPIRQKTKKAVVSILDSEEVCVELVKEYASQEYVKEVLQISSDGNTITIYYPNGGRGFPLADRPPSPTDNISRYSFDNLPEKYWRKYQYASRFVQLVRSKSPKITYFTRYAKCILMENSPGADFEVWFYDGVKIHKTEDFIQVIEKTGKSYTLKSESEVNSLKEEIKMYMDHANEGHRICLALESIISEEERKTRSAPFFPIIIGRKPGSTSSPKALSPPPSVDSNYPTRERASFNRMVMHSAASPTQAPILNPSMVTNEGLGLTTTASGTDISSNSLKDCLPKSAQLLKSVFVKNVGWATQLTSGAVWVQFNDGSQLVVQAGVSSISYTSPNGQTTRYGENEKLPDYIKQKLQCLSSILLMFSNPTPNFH

[7] = biological target: Ribosomal protein S6 kinase alpha-3 (Homo sapiens, UniProt P51812)
[8] = biological target: Phosphorylase b kinase gamma catalytic chain, skeletal muscle/heart isoform (Homo sapiens, UniProt Q16816)
[9] = biological target: Tyrosine-protein kinase CSK (Homo sapiens, UniProt P41240)
[10] = biological target: Death-associated protein kinase 3 (Homo sapiens, UniProt O43293)
[11] = biological target: Mast/stem cell growth factor receptor Kit (Homo sapiens, UniProt P10721)
[12] = biological target: Platelet-derived growth factor receptor beta (Homo sapiens, UniProt P09619)
[13] = biological target: Serine/threonine-protein kinase PAK 1 (Homo sapiens, UniProt Q13153)
[14] = biological target: Tyrosine-protein kinase ABL1 (Homo sapiens, UniProt P00519, T315I)

Measured: Kd

Sequence of Serine/threonine-protein kinase Nek6 (Q9HC98 whole entry, the tested form may be a part): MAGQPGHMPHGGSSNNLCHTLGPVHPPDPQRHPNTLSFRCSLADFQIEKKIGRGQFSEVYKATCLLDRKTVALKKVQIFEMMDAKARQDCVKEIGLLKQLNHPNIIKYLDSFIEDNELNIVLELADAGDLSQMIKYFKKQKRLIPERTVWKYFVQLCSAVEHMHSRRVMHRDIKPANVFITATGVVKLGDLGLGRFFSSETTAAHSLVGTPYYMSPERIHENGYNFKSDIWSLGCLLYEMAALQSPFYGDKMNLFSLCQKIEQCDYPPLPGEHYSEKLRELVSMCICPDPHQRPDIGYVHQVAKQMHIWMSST
Sequence of Mitogen-activated protein kinase kinase kinase kinase 5 (Q9Y4K4 whole entry): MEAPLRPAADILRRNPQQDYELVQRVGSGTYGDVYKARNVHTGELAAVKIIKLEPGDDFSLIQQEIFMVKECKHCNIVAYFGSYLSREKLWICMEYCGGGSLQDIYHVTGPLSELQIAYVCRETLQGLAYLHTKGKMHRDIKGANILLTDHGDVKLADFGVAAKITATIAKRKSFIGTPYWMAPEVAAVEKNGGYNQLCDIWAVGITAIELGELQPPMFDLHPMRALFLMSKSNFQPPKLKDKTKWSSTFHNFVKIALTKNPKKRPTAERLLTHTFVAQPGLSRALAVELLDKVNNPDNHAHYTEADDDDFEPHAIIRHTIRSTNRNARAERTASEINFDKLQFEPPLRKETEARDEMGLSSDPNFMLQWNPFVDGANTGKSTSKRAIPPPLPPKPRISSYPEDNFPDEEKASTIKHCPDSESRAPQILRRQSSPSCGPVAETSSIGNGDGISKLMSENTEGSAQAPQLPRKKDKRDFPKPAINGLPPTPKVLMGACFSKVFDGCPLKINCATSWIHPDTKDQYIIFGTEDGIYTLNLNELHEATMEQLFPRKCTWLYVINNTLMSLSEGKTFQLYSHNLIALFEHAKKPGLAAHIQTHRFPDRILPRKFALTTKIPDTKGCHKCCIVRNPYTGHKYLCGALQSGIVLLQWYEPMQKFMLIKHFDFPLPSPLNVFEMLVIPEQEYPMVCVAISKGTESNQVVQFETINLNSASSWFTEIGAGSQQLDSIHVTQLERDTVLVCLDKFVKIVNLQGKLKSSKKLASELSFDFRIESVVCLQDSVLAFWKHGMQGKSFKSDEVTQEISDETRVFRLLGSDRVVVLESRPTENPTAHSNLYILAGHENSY
Sequence of Serine/threonine-protein kinase PAK 1 (Q13153 whole entry): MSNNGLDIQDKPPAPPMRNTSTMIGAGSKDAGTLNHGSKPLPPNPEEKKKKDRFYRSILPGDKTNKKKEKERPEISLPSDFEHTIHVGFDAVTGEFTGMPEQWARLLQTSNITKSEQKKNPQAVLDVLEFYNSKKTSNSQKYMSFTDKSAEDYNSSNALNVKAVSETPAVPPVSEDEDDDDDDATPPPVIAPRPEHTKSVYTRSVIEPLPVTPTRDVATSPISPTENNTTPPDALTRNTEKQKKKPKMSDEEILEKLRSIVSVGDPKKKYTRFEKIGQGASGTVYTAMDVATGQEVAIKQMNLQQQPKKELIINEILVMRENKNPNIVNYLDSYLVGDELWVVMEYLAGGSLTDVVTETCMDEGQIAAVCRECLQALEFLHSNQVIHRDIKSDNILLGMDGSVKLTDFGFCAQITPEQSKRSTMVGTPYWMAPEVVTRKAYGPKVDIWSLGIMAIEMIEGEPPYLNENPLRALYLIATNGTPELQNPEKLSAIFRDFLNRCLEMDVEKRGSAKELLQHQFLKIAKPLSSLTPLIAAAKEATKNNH
Sequence of LIM domain kinase 1 (P53667 whole entry, the tested form may be a part): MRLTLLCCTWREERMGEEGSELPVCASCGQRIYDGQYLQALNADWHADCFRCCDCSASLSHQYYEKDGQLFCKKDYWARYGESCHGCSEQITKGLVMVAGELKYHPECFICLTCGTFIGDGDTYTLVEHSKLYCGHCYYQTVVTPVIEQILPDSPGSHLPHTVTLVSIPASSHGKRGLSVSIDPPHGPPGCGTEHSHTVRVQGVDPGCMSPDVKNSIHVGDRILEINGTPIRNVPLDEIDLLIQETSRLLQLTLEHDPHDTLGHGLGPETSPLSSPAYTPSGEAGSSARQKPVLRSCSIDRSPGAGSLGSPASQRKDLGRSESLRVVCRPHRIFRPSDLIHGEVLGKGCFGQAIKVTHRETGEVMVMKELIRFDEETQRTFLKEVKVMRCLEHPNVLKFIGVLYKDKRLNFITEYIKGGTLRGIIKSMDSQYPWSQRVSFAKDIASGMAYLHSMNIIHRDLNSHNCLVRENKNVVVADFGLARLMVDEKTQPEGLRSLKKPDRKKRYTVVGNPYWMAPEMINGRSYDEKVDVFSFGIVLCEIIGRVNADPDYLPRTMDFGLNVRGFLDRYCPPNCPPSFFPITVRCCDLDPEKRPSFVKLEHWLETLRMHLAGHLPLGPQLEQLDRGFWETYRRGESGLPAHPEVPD
Sequence of Death-associated protein kinase 3 (O43293 whole entry): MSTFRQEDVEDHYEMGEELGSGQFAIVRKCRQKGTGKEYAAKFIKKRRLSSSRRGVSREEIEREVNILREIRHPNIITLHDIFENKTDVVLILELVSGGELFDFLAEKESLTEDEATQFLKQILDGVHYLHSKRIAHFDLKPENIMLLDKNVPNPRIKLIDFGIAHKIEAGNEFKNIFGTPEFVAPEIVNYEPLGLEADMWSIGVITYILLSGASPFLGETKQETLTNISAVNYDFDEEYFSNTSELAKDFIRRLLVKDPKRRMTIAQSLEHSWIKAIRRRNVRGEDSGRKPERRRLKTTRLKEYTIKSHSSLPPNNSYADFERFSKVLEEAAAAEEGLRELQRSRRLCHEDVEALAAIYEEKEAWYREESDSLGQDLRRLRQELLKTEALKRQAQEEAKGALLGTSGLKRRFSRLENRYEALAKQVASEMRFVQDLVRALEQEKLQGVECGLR
Sequence of Platelet-derived growth factor receptor beta (P09619 whole entry): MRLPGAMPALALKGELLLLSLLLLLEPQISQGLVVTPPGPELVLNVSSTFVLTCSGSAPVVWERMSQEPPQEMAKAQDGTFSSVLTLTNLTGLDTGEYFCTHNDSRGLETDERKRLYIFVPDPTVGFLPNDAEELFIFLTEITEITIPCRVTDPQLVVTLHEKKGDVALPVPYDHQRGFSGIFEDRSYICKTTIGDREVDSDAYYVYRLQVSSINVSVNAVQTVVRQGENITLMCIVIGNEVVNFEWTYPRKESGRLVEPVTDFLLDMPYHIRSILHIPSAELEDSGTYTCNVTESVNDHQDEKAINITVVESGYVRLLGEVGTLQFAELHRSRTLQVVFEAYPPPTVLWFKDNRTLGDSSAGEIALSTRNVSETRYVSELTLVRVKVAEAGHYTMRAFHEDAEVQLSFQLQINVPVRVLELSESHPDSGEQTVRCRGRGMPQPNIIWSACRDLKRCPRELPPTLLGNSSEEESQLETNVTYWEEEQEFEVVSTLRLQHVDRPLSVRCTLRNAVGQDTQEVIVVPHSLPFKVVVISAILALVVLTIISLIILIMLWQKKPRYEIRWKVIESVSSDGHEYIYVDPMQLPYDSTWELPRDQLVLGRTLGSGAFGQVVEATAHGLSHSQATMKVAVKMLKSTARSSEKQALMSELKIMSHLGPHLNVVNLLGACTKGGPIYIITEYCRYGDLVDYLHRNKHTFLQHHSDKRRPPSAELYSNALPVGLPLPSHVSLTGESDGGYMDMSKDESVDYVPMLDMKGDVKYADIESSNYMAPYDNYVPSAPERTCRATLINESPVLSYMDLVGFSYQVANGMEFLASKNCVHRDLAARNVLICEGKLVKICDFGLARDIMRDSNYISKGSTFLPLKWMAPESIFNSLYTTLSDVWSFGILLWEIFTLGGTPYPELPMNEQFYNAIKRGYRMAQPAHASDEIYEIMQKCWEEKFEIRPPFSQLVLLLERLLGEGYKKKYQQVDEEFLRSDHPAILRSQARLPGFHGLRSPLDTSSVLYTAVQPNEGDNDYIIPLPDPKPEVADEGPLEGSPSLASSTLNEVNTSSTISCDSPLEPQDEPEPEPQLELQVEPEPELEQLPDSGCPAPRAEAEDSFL
Sequence of Ribosomal protein S6 kinase alpha-3 (P51812 whole entry, canonical isoform): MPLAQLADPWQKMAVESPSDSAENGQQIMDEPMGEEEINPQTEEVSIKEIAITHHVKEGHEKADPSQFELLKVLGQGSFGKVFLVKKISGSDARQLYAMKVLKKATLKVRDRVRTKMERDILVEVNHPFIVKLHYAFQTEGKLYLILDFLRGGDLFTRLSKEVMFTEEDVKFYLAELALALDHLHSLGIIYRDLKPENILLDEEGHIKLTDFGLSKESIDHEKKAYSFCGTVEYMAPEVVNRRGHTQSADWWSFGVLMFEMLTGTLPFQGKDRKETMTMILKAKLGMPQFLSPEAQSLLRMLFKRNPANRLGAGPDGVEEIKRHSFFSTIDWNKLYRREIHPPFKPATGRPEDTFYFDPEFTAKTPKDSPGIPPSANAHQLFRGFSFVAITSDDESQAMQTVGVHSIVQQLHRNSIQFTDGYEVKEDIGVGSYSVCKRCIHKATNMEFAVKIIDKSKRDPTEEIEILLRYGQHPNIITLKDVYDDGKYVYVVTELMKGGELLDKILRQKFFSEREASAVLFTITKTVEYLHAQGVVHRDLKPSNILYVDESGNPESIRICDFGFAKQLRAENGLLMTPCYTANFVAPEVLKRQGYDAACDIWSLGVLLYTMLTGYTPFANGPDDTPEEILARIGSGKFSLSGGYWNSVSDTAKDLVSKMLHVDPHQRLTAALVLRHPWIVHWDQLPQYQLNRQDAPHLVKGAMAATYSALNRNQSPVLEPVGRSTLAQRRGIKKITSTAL
Sequence of Cyclin-dependent kinase 5 (Q00535 whole entry): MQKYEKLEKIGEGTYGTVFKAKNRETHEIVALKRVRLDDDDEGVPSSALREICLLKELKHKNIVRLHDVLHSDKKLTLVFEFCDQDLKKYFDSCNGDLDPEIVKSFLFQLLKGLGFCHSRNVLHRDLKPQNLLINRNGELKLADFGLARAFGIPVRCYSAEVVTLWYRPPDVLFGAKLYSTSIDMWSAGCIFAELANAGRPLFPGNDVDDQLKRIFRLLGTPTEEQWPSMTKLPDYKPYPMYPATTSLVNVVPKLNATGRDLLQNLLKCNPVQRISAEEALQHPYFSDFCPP

C#Cc1cccc(Nc2ncnc3cc(OCCOC)c(OCCOC)cc23)c1 [ERLOTINIB]
Not Active: [1] | [2] | [3] | [4] | LIM domain kinase 1 | [5] | [6] | [7] | [8] | [9] | [10] | [11] | [12] | [13]

Cc1ccc(NC(=O)c2ccc(CN3CCN(C)CC3)cc2)cc1Nc1nccc(-c2cccnc2)n1 [IMATINIB]
Not Active: [1] | [2] | [3] | [4] | LIM domain kinase 1 | [5] | [7] | [8] | [9] | [10] | [13]

O=c1ncn2nc(Sc3ccc(F)cc3F)ccc2c1-c1c(Cl)cccc1Cl [NEFLAMAPIMOD]
Not Active: [14] | [1] | [2] | [3] | [4] | LIM domain kinase 1 | [5] | [6] | [7] | [8] | [9] | [10] | [11] | [13]

CCOc1cc2ncc(C#N)c(Nc3ccc(F)c(Cl)c3)c2cc1NC(=O)/C=C/CN(C)C [PELITINIB]
Not Active: [1] | [4] | LIM domain kinase 1 | [6] | [7] | [11] | [12]

Oc1ccc(-c2nc(-c3ccc(F)cc3)c(-c3ccncc3)[nH]2)cc1 [SB-202190]
Not Active: [14] | [1] | [2] | [4] | LIM domain kinase 1 | [5] | [6] | [7] | [8] | [9] | [10] | [11] | [12] | [13]

C[S+]([O-])c1ccc(-c2nc(-c3ccc(F)cc3)c(-c3ccncc3)[nH]2)cc1 (stereo not drawn) [SB-203580]
Not Active: [14] | [1] | [2] | [4] | LIM domain kinase 1 | [5] | [6] | [7] | [8] | [9] | [10] | [11] | [12] | [13]

Oc1c2ccccc2c2c3c(cccc13)N=N2 [SP-600125]
Not Active: [14] | [2] | [3] | [4] | LIM domain kinase 1 | [5] | [7] | [8] | [9] | [11] | [12] | [13]

COc1cc2c(N3CCN(C(=O)Nc4ccc(OC(C)C)cc4)CC3)ncnc2cc1OCCCN1CCCCC1 [TANDUTINIB]
Not Active: [14] | [1] | [3] | [4] | LIM domain kinase 1 | [5] | [6] | [7] | [8] | [9] | [10] | [13]
